Like-named read-outs stand apart in the source and are kept apart here.
Tested on: HCV 1b genotype
Test: HCV Replicon assay (HCV-neo replicon cells, wild-type)
Type: cell-based
Details: HCV 1b genotype replicon, read-out: 1b EC50 (in μM or range)
Procedure: An HCV Replicon assay was utilized in the present disclosure, and was prepared, conducted and validated as described in commonly owned PCT/US2006/022197 and in O′Boyle et. al. Antimicrob Agents Chemother, 2005 April; 49(4):1346-53. Assay methods incorporating luciferase reporters have also been used as described (Apath.com).
HCV-neo replicon cells and replicon cells containing mutations in the NS5A region were used to test the currently described family of compounds. The compounds were determined to have more than 10-fold less inhibitory activity on cells containing mutations than wild-type cells. Thus, the compounds of the present disclosure can be effective in inhibiting the function of the HCV NS5A protein and are understood to be as effective in combinations as previously described in application PCT/US2006/022197 and commonly owned WO/04014852. Further, the compounds of the present disclosure can be effective against the HCV 1b genotype. It should also be understood that the compounds of the present disclosure can inhibit multiple genotypes of HCV. […] In one embodiment, compounds of the present disclosure are inhibitory versus 1a, 1b, 2a, 2b, 3a, 4a, and 5a genotypes.

[1] = Hepatitis C virus, range class A-D

Compound	EC50 [1] [µM]	also measured
O=C(Nc1ccc(C#Cc2ccc(NC(=O)[C@@H]3CCCN3C(=O)[C@H]3CCCO3)cc2)cc1)[C@@H]1CCCN1C(=O)[C@H]1CCCO1 [Example D26, (2S,2′S)-N,N′-(1,2-ethynediyldi-4,1-phenylene)bis(1-((2R)-tetrahydro-2-furanylcarbonyl)-2-pyrrolidinecarboxamide)]	0.00457 to 0.099	–
CC(=O)O[C@@H]1C[C@@H](C(=O)Nc2ccc(C#Cc3ccc(NC(=O)[C@@H]4CCCN4C(C)=O)cc3)cc2)N(C(=O)Cc2ccccc2)C1 [Example D27, (3R,5S)-5-((4-((4-((((2S)-1-Acetyl-2-pyrrolidinyl)carbonyl)amino)phenyl)ethynyl)phenyl)carbamoyl)-1-(phenylacetyl)-3-pyrrolidinyl acetate]	0.00457 to 0.099	–
O=C(Nc1ccc(C#Cc2ccc(NC(=O)[C@@H]3CCCN3C(=O)c3nccc4ccccc34)cc2)cc1)[C@@H]1CCCN1C(=O)c1nccc2ccccc12 [Example D28, (2S,2′S)-N,N′-(1,2-ethynediyldi-4,1-phenylene)bis(1-(1-isoquinolinylcarbonyl)-2-pyrrolidinecarboxamide)]	0.1 to 0.999	–
O=C(Nc1ccc(C#Cc2ccc(NC(=O)[C@@H]3CCCN3C(=O)c3nccn3Cc3ccccc3)cc2)cc1)[C@@H]1CCCN1C(=O)c1nccn1Cc1ccccc1 [Example D29, (2S,2′S)-N,N′-(1,2-ethynediyldi-4,1-phenylene)bis(1-((1-benzyl-1H-imidazol-2-yl)carbonyl)-2-pyrrolidinecarboxamide)]	0.1 to 0.999	–
Cn1c(C(=O)N2CCC[C@H]2C(=O)Nc2ccc(C#Cc3ccc(NC(=O)[C@@H]4CCCN4C(=O)c4cc5ccccc5n4C)cc3)cc2)cc2ccccc21 [Example D30, (2S,2′S)-N,N′-(1,2-ethynediyldi-4,1-phenylene)bis(1-((1-methyl-1H-indol-2-yl)carbonyl)-2-pyrrolidinecarboxamide)]	–	EC50 (Hepatitis C virus): 1.21 µM
O=C(Nc1ccc(C#Cc2ccc(NC(=O)[C@@H]3CCCN3C(=O)c3nc(Cl)cc4ccccc34)cc2)cc1)[C@@H]1CCCN1C(=O)c1nc(Cl)cc2ccccc12 [Example D31, (2S,2′S)-N,N′-(1,2-ethynediyldi-4,1-phenylene)bis(1-((3-chloro-1-isoquinolinyl)carbonyl)-2-pyrrolidinecarboxamide)]	0.00457 to 0.099	–
N#Cc1cc2ccccc2c(C(=O)N2CCC[C@H]2C(=O)Nc2ccc(C#Cc3ccc(NC(=O)[C@@H]4CCCN4C(=O)c4nc(C#N)cc5ccccc45)cc3)cc2)n1 [Example D32, (2S,2′S)-N,N′-(1,2-ethynediyldi-4,1-phenylene)bis(1-((3-cyano-1-isoquinolinyl)carbonyl)-2-pyrrolidinecarboxamide)]	0.00457 to 0.099	–
COc1cccc2c(C(=O)N3CCC[C@H]3C(=O)Nc3ccc(C#Cc4ccc(NC(=O)[C@@H]5CCCN5C(=O)c5nc(Cl)cc6c(OC)cccc56)cc4)cc3)nc(Cl)cc12 [Example D33, (2S,2′S)-N,N′-(1,2-ethynediyldi-4,1-phenylene)bis(1-((3-chloro-5-methoxy-1-isoquinolinyl)carbonyl)-2-pyrrolidinecarboxamide)]	0.00457 to 0.099	–
CCOc1cccc2c(C(=O)N3CCC[C@H]3C(=O)Nc3ccc(C#Cc4ccc(NC(=O)[C@@H]5CCCN5C(=O)c5nc(Cl)cc6c(OCC)cccc56)cc4)cc3)nc(Cl)cc12 [Example D34, (2S,2′S)-N,N′-(1,2-ethynediyldi-4,1-phenylene)bis(1-((3-chloro-5-ethoxy-1-isoquinolinyl)carbonyl)-2-pyrrolidinecarboxamide)]	0.00457 to 0.099	–
COc1ccc2c(C(=O)N3CCC[C@H]3C(=O)Nc3ccc(C#Cc4ccc(NC(=O)[C@@H]5CCCN5C(=O)c5nc(Cl)cc6cc(OC)ccc56)cc4)cc3)nc(Cl)cc2c1 [Example D35, (2S,2′S)-N,N′-(1,2-ethynediyldi-4,1-phenylene)bis(1-((3-chloro-6-methoxy-1-isoquinolinyl)carbonyl)-2-pyrrolidinecarboxamide)]	–	EC50 (Hepatitis C virus): 0.094 µM
CN(C)[C@@H](C(=O)N1CCC[C@H]1C(=O)Nc1ccc(C#Cc2ccc(NC(=O)[C@@H]3CCCN3C(=O)[C@@H](c3ccc(F)cc3)N(C)C)cc2)cc1)c1ccc(F)cc1 [Example D36, (2S,2′S)-N,N′-(1,2-ethynediyldi-4,1-phenylene)bis(1-((2R)-2-(dimethylamino)-2-(4-fluorophenyl)acetyl)-2-pyrrolidinecarboxamide)]	< 0.00457	–
CCc1sc(Cl)nc1C(=O)N1CCC[C@H]1C(=O)Nc1ccc(C#Cc2ccc(NC(=O)[C@@H]3CCCN3C(=O)c3nc(Cl)sc3CC)cc2)cc1 [Example D36.1, (2S,2′S)-N,N′-(4,4′-(ethyne-1,2-diyl)bis(4,1-phenylene))bis(1-(2-chloro-5-ethylthiazole-4-carbonyl)pyrrolidine-2-carboxamide)]	–	EC50 (range class A-D): 0.1 to 0.999 µM
CCc1scnc1C(=O)N1CCC[C@H]1C(=O)Nc1ccc(C#Cc2ccc(NC(=O)[C@@H]3CCCN3C(=O)c3ncsc3CC)cc2)cc1 [Example D36.2, (2S,2′S)-N,N′-(4,4′-(ethyne-1,2-diyl)bis(4,1-phenylene))bis(1-(5-ethylthiazole-4-carbonyl)pyrrolidine-2-carboxamide)]	–	EC50 (range class A-D): 0.00457 to 0.099 µM
C=Cc1cccnc1C(=O)N1CCC[C@H]1C(=O)Nc1ccc(C#Cc2ccc(NC(=O)[C@@H]3CCCN3C(=O)c3ncccc3C=C)cc2)cc1 [Example D36.3, (2S,2′S)-N,N′-(4,4′-(ethyne-1,2-diyl)bis(4,1-phenylene))bis(1-(3-vinylpicolinoyl)pyrrolidine-2-carboxamide)]	–	EC50 (range class A-D): 0.1 to 0.999 µM
CCc1cccnc1C(=O)N1CCC[C@H]1C(=O)Nc1ccc(C#Cc2ccc(NC(=O)[C@@H]3CCCN3C(=O)c3ncccc3CC)cc2)cc1 [Example D36.4, (2S,2′S)-N,N′-(4,4′-(ethyne-1,2-diyl)bis(4,1-phenylene))bis(1-(3-ethylpicolinoyl)pyrrolidine-2-carboxamide)]	–	EC50 (range class A-D): 0.00457 to 0.099 µM
O=C(Nc1ccc(C#Cc2ccc(NC(=O)[C@@H]3CCCN3C(=O)CC3CC3)cc2)cc1)[C@@H]1CCCN1C(=O)CC1CC1 [Example D37, (2S,2′S)-N,N′-(1,2-ethynediyldi-4,1-phenylene)bis(1-(cyclopropylacetyl)-2-pyrrolidinecarboxamide)]	0.00457 to 0.099	–
O=C(Nc1ccc(C#Cc2ccc(NC(=O)[C@@H]3CCCN3C(=O)c3nc(Cl)cc4ccccc34)cc2)cc1)[C@@H]1CCCN1C(=O)CC1CC1 [Example D38, (2S)-1-((3-Chloro-1-isoquinolinyl)carbonyl)-N-(4-((4-((((2S)-1-(cyclopropylacetyl)-2-pyrrolidinyl)carbonyl)amino)phenyl)ethynyl)phenyl)-2-pyrrolidinecarboxamide]	0.00457 to 0.099	–
O=C(Nc1ccc(C#Cc2ccc(NC(=O)[C@@H]3CCCN3C(=O)Cc3cccnc3)cc2)cc1)[C@@H]1CCCN1C(=O)Cc1cccnc1 [Example D39, (2S,2′S)-N,N′-(1,2-ethynediyldi-4,1-phenylene)bis(1-(3-pyridinylacetyl)-2-pyrrolidinecarboxamide)]	< 0.00457	–
O=C(Nc1ccc(C#Cc2ccc(NC(=O)[C@@H]3CCCN3C(=O)c3nc(Cl)cc4ccccc34)cc2)cc1)[C@@H]1CCCN1C(=O)Cc1cccnc1 [Example D40, (2S)-1-((3-Chloro-1-isoquinolinyl)carbonyl)-N-(4-((4-((((2S)-1-(3-pyridinylacetyl)-2-pyrrolidinyl)carbonyl)amino)phenyl)ethynyl)phenyl)-2-pyrrolidinecarboxamide]	0.00457 to 0.099	–
